The record followed here is ChEMBL document CHEMBL4616604, “Comparing a thioglycosylated chlorin and phthalocyanine as potential theranostic agents” (Bioorg Med Chem, 2020).

The test system of data set [1] is MDA-MB-231. The data set can be described thus: Phototoxicity against human MDA-MB-231 cells assessed as inhibition of cell viability incubated with compound for 2 hrs followed by irradiation with 0.92 mW cm'-2 light and measured after overnight incubation by CellTiter Blue assay. The format is functional, cell-based. To be noted: MDA-MB-231, light or radiation study. A general note: Alamar Blue is a resazurin reagent that responds to reducing activity.

In data set [2] the test system is MCF7. Put plainly: Phototoxicity against human MCF7 cells assessed as inhibition of cell viability incubated with compound for 2 hrs followed by irradiation with 0.92 mW cm'-2 light and measured after overnight incubation by CellTiter Blue assay. The format is functional, cell-based. To be noted: MCF7, light or radiation study.
The nature of data set [3]: Drug uptake in human MDA-MB-231 cells at 1 uM incubated for 24 hrs by fluorescence imaging analysis. To be noted: mda-mb-231, 24 h. The format is ADME, cell-based.
Data set [4] can be described thus: Drug uptake in athymic mouse xenografted with HNSCC cells at 0.1 mM administered iv measured up to 4 days post-drug administration by IVIS spectrum in vivo fluorescence imaging analysis. The note with it: 96 h, 100 µM. The format is ADME, organism-based.
Data set [5] in a line: Time dependent drug uptake in human MCF7 cells at 10 uM incubated up to 24 hrs by spectrofluorometric analysis. The format is ADME, cell-based. To be noted: mcf7, 24 h.
Data set [6] concerns MCF7. Put plainly: Dark cytotoxicity against human MCF7 cells assessed as inhibition of cell viability incubated for 24 hrs by CellTiter Blue assay. The format is cell-based. To be noted: MCF7, 24 h.
Data set [7] has as its system MDA-MB-231. The data set can be described thus: Dark cytotoxicity against human MDA-MB-231 cells assessed as inhibition of cell viability incubated for 24 hrs by CellTiter Blue assay. The format is cell-based. To be noted: MDA-MB-231, 24 h.
Data set [8] in a line: Drug uptake in human MCF7 cells at 1 uM incubated for 24 hrs by fluorescence imaging analysis. The format is ADME, cell-based. To be noted: mcf7, 24 h.
Data set [9] is described as follows: Time dependent drug uptake in human MDA-MB-231 cells at 10 uM incubated up to 24 hrs by spectrofluorometric analysis. The format is ADME, cell-based. To be noted: mda-mb-231, 24 h.

As usually defined, the IC50 is the concentration needed to halve the response being measured. As for `CN1CC2c3nc(c(-c4c(F)c(F)c(S[C@@H]5O[C@H](CO)[C@@H](O)[C@H](O)[C@H]5O)c(F)c4F)c4ccc([nH]4)c(-c4c(F)c(F)c(S[C@@H]5O[C@H](CO)[C@@H](O)[C@H](O)[C@H]5O)c(F)c4F)c4nc(c(-c5c(F)c(F)c(S[C@@H]6O[C@H](CO)[C@@H](O)[C@H](O)[C@H]6O)c(F)c5F)c5ccc([nH]5)c3-c3c(F)c(F)c(S[C@@H]5O[C@H](CO)[C@@H](O)[C@H](O)[C@H]5O)c(F)c3F)C=C4)C2C1` (some centres undefined), the IC50 in the data set with MDA-MB-231 [1] is 1000 to 2000 nM; with MCF7 [2], 1000 to 2000 nM; with MCF7 [6], over 100000 nM; in the data set with MDA-MB-231 [7], over 100000 nM. In addition, the Drug uptake entry in data set [3], in data set [4], in [5], in data set [8] and in data set [9] was “Active” in each case.
